Measured values reported in US6458808B1, “Pharmaceutical composition for the treatment of cognitive cerebrovascular disease” (Osmotica Corp., priority 2000, dated 2002).

How the values were obtained:
[1] = oral, multiple doses of 45 or 100 mg, healthy volunteers; cited from earlier work
[2] = system: patients having either mild or very mild cognitive deterioration; assay: Double-blind 16-week clinical trial (CDR, Barthel's, Folstein's tests, Global Clinical Impression); assay type: in vivo, human; conditions: for Global Clinic Impression: after 16-week treatment, code 1 highly worsened, 4 unchanged, 5 slightly improved, 6 improved, 7 highly improved; for BARTHEL's test, final mark / CDR test, final mark / FOLSTEIN's test, final mark: group average after 16-week treatment, twice a day; for FOLSTEIN's test, final mark: higher mark = favorable; for BARTHEL's test, initial mark / FOLSTEIN's test, initial mark / CDR test, initial mark: group average at baseline, before 16-week treatment; for CDR test, initial mark: twice a day oral
Source text: Seventy nine patients having either mild or very mild cognitive deterioration with the following inclusion criterion:
Antecedents of ischaemic cerebrovascular pathology with symptoms or only with expression in brain computerized tomography (silent infarct). In case of focal or acute multimodal symptoms, at least a three-month period should elapse since symptoms evidence before being included in the tests.
Severity of cognitive deterioration was of the very mild or mild type CDR scale 0,5 and 1 (Clinical Dementia Rating).
Patients were selected from the Neurology area of four different hospitals. In each center a randomization list for parallel groups was established. Tablets in the three groups had the same aspect so as to preserve the double-blind characteristic of the study.
For diagnosis of cognitive deterioration and its association to ischaemic cerebrovascular disorders the criteria proposed in 1992 by the California University, USA, were used, in both their probable and possible forms.
The degree of severity of the cognitive disorder is limited to a borderline, mild condition, according to CDR scale in its points 0.5 and 1. A Hamilton test is carried out in order to detect a depressive condition, which shall contribute to the differential diagnosis of a pseudo dementia.
The Barthel index was used for evaluation of everyday life.
During the initial period a washing in medicine intake was made, in the weeks −4 to 0, the latter being the baseline for those drugs considered to be vasoactive or nootropic.
The observation period lasted 16 weeks, so patients were randomized in three groups which received as double-blind treatment:
Idebenone 45 mg, twice a day.
Nimodipine 30 mg, twice a day.
Idebenone 45 mg+Nimodipine 30 mg, twice a day.
Therapeutic efficacy criteria were based on the results of Folstein's, CDR and Barthel's scales and Global Clinical Impression (GCI). In order to evaluate therapeutic efficacy between the group receiving the combined dosage and the groups receiving the idebenone or nimodipine alone, a statistically significant improvement in one of the following criteria should exist: […]

[3] = in vivo; cited from earlier work

SMILES | accumulation after repeated doses [1] | Global Clinic Impression [2] | BARTHEL's test, final mark [2] | CDR test, final mark [2] | FOLSTEIN's test, final mark [2] | BARTHEL's test, initial mark [2] | FOLSTEIN's test, initial mark [2] | CDR test, initial mark [2] | delivery to tissues [3]
COC1=C(OC)C(=O)C(CCCCCCCCCCO)=C(C)C1=O [Group A, 6-(10-hydroxydecil)-2,3-dimethoxy-5-methyl-1,4-benzoquinone] | Accumulation does not occur | 5.0 | 87.6 | 0.64 | 24.8 | 87.2 | 22.8 | 0.68 | widely delivered to different tissues, including the brain
COCCOC(=O)C1=C(C)NC(C)=C(C(=O)OC(C)C)C1c1cccc([N+](=O)[O-])c1 (stereo not shown) [Group B, 1,4-dyhidro-5-(isopropoxycarbonyl)-2,6-dimethyl-4-(3-nitrophenyl)-3-pyridine-carboxylate of 2-methoxyethyl] |  | 4.9 | 81.1 | 0.63 | 23.9 | 80.7 | 22.5 | 0.67 | 
